US8653086B2, “Naphthamides as anticancer agents” (Oregon Health & Science University, priority 2008, dated 2014)

Tests used:
MCF-7 cells [1] = assay: MCF-7 cell growth inhibition, MTT (Example 2); format: cell-based; details: Homo sapiens, MCF7, 72 h, mean ± SD of at least two measurements in duplicates unless noted
Experimental: (§1) HeLa cells (human cervical cancer cells) were obtained from American Type Culture Collection (ATCC) and maintained in Dulbecco's modified Eagle medium (DMEM, Invitrogen, Carlsbad, Calif.) supplemented with 10% (v/v) fetal calf serum (Sigma, St. Louis, Mo.), 10 μg/mL penicillin and 10 μg/mL streptomycin (Invitrogen, Carlsbad, Calif.) at 37° C. under 5% CO2. HeLa cells (2,000 cells/well) were plated in 96-well plates the day before experiment. On the day of experiment, different concentrations of the drugs (final concentration 10^−8-10^−4 M) in duplicates were added to the cells and the cells were further incubated for 72 h. Then, the number of live cells was quantified by 3-(4,5-dimethyl-2-thiazolyl)-2,5-diphenyl-2H-tetrazolium bromide (MIT reagent, Sigma, St. Louis, Mo.).
(§2) Following the same procedure, identical experiments were performed using, A549 cells (human lung cancer cells) and MCF-7 cells (human breast cancer cells).
(§3) The amount of reduced MTT formazan generated by live cells was determined by its absorbance at 570 nm after subtracting the background absorbance at 690 nm. The percent of cell growth was expressed as (A570(treated)−A570(initial))/(A570(vehicle treated)−A570(initial))×100, where A570(initial) represents initial cell population when drugs are added. The GI50 were derived from non-linear regression analysis of the dose-response curve using Prism 4.0 (GraphPad).

HeLa cells [2] = assay: HeLa cell growth inhibition, MTT (Example 2); format: cell-based; details: Homo sapiens, 72 h, mean ± SD of at least two measurements in duplicates unless noted
Experimental: as §1, §3

A549 cells [3] = assay: A549 cell growth inhibition, MTT (Example 2); format: cell-based; details: Homo sapiens, 72 h, mean ± SD of at least two measurements in duplicates unless noted
Experimental: as §1, §2, §3

A549 cells [4] = assay: A549 cancer cell growth inhibition, MTT (Example 6); format: cell-based; details: Homo sapiens, 72-h incubation
Experimental: (§4) HeLa, A549, and MCF-7 cells, in a 96-well plate (1.0×10^5/well) were treated with different concentrations of the compounds for 72 h. Then the number of cells was quantified by incubating cells with MTT reagent (Sigma, 50 μg/mL) for 3 h. The reduced formazan product was solubilized in DMSO to be measured spectrophotometrically at 570 nm.

HeLa cells [5] = assay: HeLa cancer cell growth inhibition, MTT (Example 6); format: cell-based; details: Homo sapiens, 72-h incubation
Experimental: as §4

MCF-7 cells [6] = assay: MCF-7 cancer cell growth inhibition, MTT (Example 6); format: cell-based; details: Homo sapiens, MCF7, 72-h incubation
Experimental: as §4

primary rat neurons = details: E18 rat neurons, 48 h; naphthols up to 10 μM; CPT positive control
Experimental: E18 rat neurons were isolated from Sprague-Dawley rats at 18 days after gestation. The isolated neurons were plated into a 6-well plate coated with poly-D-lysine. On day 5 after plating the neurons, different compounds of indicated concentrations were added (in triplicates) and incubated with the neurons for 48 h. Then the neurons were harvested and the number of live neurons was counted with a hemacytometer after staining with trypan blue. Data were presented as mean±SD.
CREB is a pleiotrophic factor involved in many different cellular processes including neuronal survival. The possibility of neuronal cell death might be a concern for CREB inhibitors in the future clinical applications if they could cross the blood brain barrier. Therefore, the toxicity of naphthol AS-E phosphate (i) or its active form, naphthol AS-E (ii), to primary rat neurons was investigated. Isolated E18 rat neurons were treated with increasing concentrations of naphthol AS-E phosphate (i) or naphthol AS-E (ii) for 48 h. […] At the end of the treatment, the neurons were collected and the number of live neurons were counted using trypan blue exclusion assay (FIG. 3).

[7] = Maximum tolerated dose in nude mice; format: in vivo; details: for tolerability: ten days
Experimental: The maximum tolerated dose (MTD) of compound 4 and compound 7 was evaluated in nude mice.
In this study 7 groups were established, each with three mice per group. 10 μl/g of a mixture of 10 ml of DMSO and 10 ml sterile saline was administered per day to group I, the control group; compound 4 was administered intravenously at dose levels of 10, 25, and 50 mg/kg and a dose volume of 10 μl/g per day to groups 2-4 respectively; and compound 7 was administered intravenously at dose levels of 10, 25, and 50 mg/kg and a dose volume of 10 μl/g per day to groups 5-7 respectively. The study was run for ten days.
Animals were monitored individually up to 7 days after final treatment. Daily general health observations included animal mortality, appearance, spontaneous activity, body posture, and food and water intake. Lesions and any other adverse reactions were recorded.

KIX-KID interaction = biological target: T1, KIX-KID interaction (Homo sapiens, UniProt Q92793); assay: In vitro renilla luciferase complementation assay; format: biochemical; details: 4° C., 24 h, read-out: KIX-KID interaction inhibition IC50
T1 construct: RLucC-KIX (15 ng) and KID-RLucN-containing cell lysates; made in house
Experimental: RLucC-KIX (15 ng) and KID-RLucN-containing cell lysates (0.5 mg) were mixed together in renilla luciferase lysis buffer (Promega, Madison, Wis.) in the presence of different concentrations of compounds. The final volume of the incubation mixture is 30 μL. The mixture was incubated at 4° C. for 24 h. Then renilla luciferase activity was measured by combining 5 μL of incubation mixture with 30 μL of coelenterazine solution in PBS (pH 7.4, 10 μg/mL).

[8] = test system: CREB-mediated gene transcription; assay: CREB renilla luciferase reporter assay in HEK293T cells; format: cell-based; details: Homo sapiens, HEK-293T, forskolin 10 μM, read-out: CREB transcription inhibition IC50
Experimental: HEK293T cells in a 10-cm plate were transfected with pCRE-RLuc (6.0 μg) with Lipofectamine™ 2000 (Invitrogen, Carlsbad, Calif.) according to manufacturer's protocol. After 3 h, the transfected cells were collected and replated into a 96-well plate (4×10^4 cells/well). The cells were allowed to attach to the bottom of the wells for overnight, when compounds of different concentrations were added to the cells. Forskolin (final concentration of 10 μM, Alexis Biochemicals, San Diego, Calif.) was added 30 min after the addition of the compounds. The cells were then incubated at 37° C. for 4.5 h and the media were removed. The cells were then lysed in renilla luciferase lysis buffer (Promega, Madison, Wis.). To measure luciferase activity, five μL of the lysate was combined with 30 μL of coelenterazine (Nanolight, Pinetop, Ariz.) solution in PBS (10 μg/mL). The sample protein concentration was determined by Dye Reagent Concentrate (Bio-Rad, Hercules, Calif.). The luciferase activity was normalized to protein content in each well and expressed as RLU/μg protein.

T1 sequence (Q92793 587-666 limits assumed): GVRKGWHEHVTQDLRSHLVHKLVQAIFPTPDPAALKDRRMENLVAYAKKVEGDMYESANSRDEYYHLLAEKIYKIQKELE

SMILES | GI50 (MCF-7 cells [1]) [µM] | GI50 (HeLa cells [2]) [µM] | GI50 (A549 cells [3]) [µM] | other results
NCCCOc1cc2ccccc2cc1C(=O)Nc1ccc(Cl)cc1 | 0.84 ± 0.18 | 1.47 ± 0.42 | 3.42 ± 0.43 | 
O=C(Nc1ccc(F)cc1)c1cc2ccccc2cc1O | 2.34 ± 0.51 | 2.06 ± 0.31 | 6.78 ± 1.32 | 
O=C(Nc1ccc(Br)cc1)c1cc2ccccc2cc1O | 1.83 ± 0.7 | 2.12 ± 0.007 | 3.98 ± 0.65 | 
O=C(Nc1ccc(I)cc1)c1cc2ccccc2cc1O | 9.76 ± 6.31 | 3.74 ± 0.81 | 5.45 ± 0.89 | 
O=C(Nc1ccc(C(F)(F)F)cc1)c1cc2ccccc2cc1O | 3.62 ± 2.56 | 2.4 ± 0.36 | 4.15 ± 0.5 | 
O=C(Nc1ccc([N+](=O)[O-])cc1)c1cc2ccccc2cc1O | 1.5 ± 0.16 | 2.94 ± 0.7 | 3.28 ± 0.31 | 
Nc1ccc(NC(=O)c2cc3ccccc3cc2O)cc1 | 28 ± 4.63 | 67.2 ± 46.3 | 51.6 ± 11.9 | 
O=C(Nc1ccccc1)c1cc2ccccc2cc1O | 4.87 ± 1.27 | 26.9 | 56.9 ± 7.75 | 
O=C(Nc1ccc(O)cc1)c1cc2ccccc2cc1O | 6.8 ± 6.34 | 42.3 ± 6.7 | 28.1 | 
COc1ccc(NC(=O)c2cc3ccccc3cc2O)cc1 | 6.55 ± 2.28 | 8.32 ± 0.55 | 85.7 ± 8.74 | 
O=C(Nc1ccc(F)c(F)c1)c1cc2ccccc2cc1O | 2.09 ± 0.82 | 2.18 ± 0.17 | 3.57 ± 0.23 | 
O=C(Nc1ccc(F)c(Cl)c1)c1cc2ccccc2cc1O | 5.21 ± 4.92 | 2.44 ± 0.56 | 3.76 ± 0.31 | 
CN(C(=O)c1cc2ccccc2cc1O)c1ccc(Cl)cc1 | 13.6 ± 4.9 | 12.9 ± 4.34 | 29.5 ± 5.27 | 
COc1cc2ccccc2cc1C(=O)Nc1ccc(Cl)cc1 | 24.8 ± 0.94 | 5.2 ± 0.61 | 62 ± 15.5 | 
O=C(Nc1ccccn1)c1cc2ccccc2cc1O | 6.25 ± 5.89 | 11.5 ± 8.9 | 75.8 ± 23.1 | 
O=C(Nc1ccncc1)c1cc2ccccc2cc1O | 15.8 ± 5.29 | 6.14 ± 3.03 | 25 ± 10.7 | 
O=C(Nc1cnccn1)c1cc2ccccc2cc1O | 12.7 ± 13.2 | 12.6 ± 12.1 | 32.2 ± 2.88 | 
COc1cc2ccccc2cc1C(=O)Nc1ccc(Cl)cc1OC(=O)c1cc2ccccc2cc1OCCCN |  |  |  | GI50 (A549 cells [4]): 12.9 µM; GI50 (HeLa cells [5]): 2.33 µM; GI50 (MCF-7 cells [6]): 19.4 µM
COc1cc2ccccc2cc1C(=O)Oc1cc(Cl)ccc1NC(=O)c1cc2ccccc2cc1OCCCN |  |  |  | GI50 (A549 cells [4]): 12.9 µM; GI50 (HeLa cells [5]): 3.12 µM; GI50 (MCF-7 cells [6]): 29.4 µM
CC[C@@]1(O)C(=O)OCc2c1cc1n(c2=O)Cc2cc3ccccc3nc2-1 [CPT, camptothecin] |  |  |  | neuronal cell death (primary rat neurons): killed most of the neurons
Cl.Cl.NCCCOc1cc(Cl)ccc1NC(=O)c1cc2ccccc2cc1OCCCN [Compound 4, 3-(3-Aminopropoxyl)-N-(2-(3-aminopropoxy)-4-chlorophenyl)-2-naphthamide dihydrochloride] |  |  |  | tolerability ([7]; 10 mg/kg per day intravenously): tolerated very well; tolerability ([7]; 25 mg/kg per day intravenously): tolerated very well; tolerability ([7]; 50 mg/kg per day intravenously): minor toxicity; body weight loss ([7]; 50 mg/kg, two of three animals at day 5 and day 6, recovery from day 7): 10-20%
NCCCOc1cc2ccccc2cc1C(=O)Nc1ccc(Cl)cc1OC(=O)c1cc2ccccc2cc1OCCCN [Compound 7] |  |  |  | tolerability ([7]; 10 mg/kg per day intravenously): tolerated very well; tolerability ([7]; 25 mg/kg per day intravenously): tolerated very well; local effect at injection site ([7]; 50 mg/kg intravenously): severe irritative effect on tail skin; tolerability ([7]; 50 mg/kg per day intravenously): tolerated very well
O=C(Nc1ccc(Cl)cc1)c1cc2ccccc2cc1O [drawing 32] | 2.76 ± 0.35 | 2.52 ± 0.77 | 2.88 ± 0.35 | 
O=C(Nc1ccc(Cl)cc1)c1cc2ccccc2cc1OP(=O)(O)O [drawing 33] | 1.93 | 2.53 ± 0.58 | 1.94 | 
COc1cc2ccccc2cc1C(=O)Nc1ccc(Cl)cc1OC(=O)c1cc2ccccc2cc1OC [drawing 35] | 2.96 ± 0.66 | 0.27 ± 0.19 | 5.25 ± 0.75 | 
NCCCOc1cc(Cl)ccc1NC(=O)c1cc2ccccc2cc1OCCCN [drawing 36] | 1.65 ± 0.42 | 0.48 ± 0.35 | 2.57 ± 0.41 | 
O=C(Nc1ccc(Cl)cc1)c1cc2ccccc2cc1O [drawing 53] |  |  |  | IC50 (KIX-KID interaction): 2.41 µM; GI50 (A549 cells [4]): 4.58 ± 1.52 µM; IC50 [8]: 2.2 µM; GI50 (HeLa cells [5]): 2.97 ± 0.74 µM; GI50 (MCF-7 cells [6]): 2.56 ± 0.45 µM
NCCCOc1cc(Cl)ccc1NC(=O)c1cc2ccccc2cc1OCCCN [drawing 54] |  |  |  | IC50 (KIX-KID interaction): 14.7 µM; GI50 (A549 cells [4]): 1.84 ± 0.11 µM; IC50 [8]: 22.9 µM; GI50 (HeLa cells [5]): 0.71 ± 0.21 µM; GI50 (MCF-7 cells [6]): 1.69 ± 0.39 µM
COc1cc2ccccc2cc1C(=O)Nc1ccc(Cl)cc1OC(=O)c1cc2ccccc2cc1OC [drawing 55] |  |  |  | IC50 (KIX-KID interaction): 0.25 µM; GI50 (A549 cells [4]): 8.78 ± 2.55 µM; IC50 [8]: 1.14 µM; GI50 (HeLa cells [5]): 0.33 ± 0.07 µM; GI50 (MCF-7 cells [6]): 3.38 ± 0.49 µM
NCCCOc1cc2ccccc2cc1C(=O)Nc1ccc(Cl)cc1OC(=O)c1cc2ccccc2cc1OCCCN [drawing 56] |  |  |  | IC50 (KIX-KID interaction): 7.08 µM; GI50 (A549 cells [4]): 0.59 ± 0.02 µM; IC50 [8]: 2.74 µM; GI50 (HeLa cells [5]): 0.29 ± 0.05 µM; GI50 (MCF-7 cells [6]): 0.42 ± 0.15 µM
